Patent US7569724B2, “Carbamic acid compounds comprising an amide linkage as HDAC inhibitors” (Topotarget UK Limited, priority 2000, dated 2009)
Like-named read-outs stand apart in the source and are kept apart here.

Experiments:
HDAC (HeLa cell extract) = test: Primary assay: deacetylase activity, HeLa cell extract as source of HDAC; format: biochemical, human; conditions: HeLa cell extract
Source text: Briefly, this assay relies on the release of radioactive acetate from a radioactively labelled histone fragment by the action of HDAC enzyme. Test compounds, which inhibit HDAC, reduce the yield of radioactive acetate. Signal (e.g., scintillation counts) measured in the presence and absence of a test compound provide an indication of that compound's ability to inhibit HDAC activity. Decreased activity indicates increased inhibition by the test compound.
The histone fragment was an N-terminal sequence from histone H4, and it was labelled with radioactively labelled acetyl groups using tritiated acetylcoenzyme A (coA) in conjunction with an enzyme which is the histone acetyltransferase domain of the transcriptional coactivator p300. […] The acetylated peptide was then separated from free acetyl coA by size exclusion chromatography on Sephadex G-15 (Sigma G-15-120), using distilled H2O as the mobile phase.
After purification of the radiolabelled histone fragment, it was incubated with a source of HDAC (e.g., an extract of HeLa cells (a rich source of HDAC), recombinantly produced HDAC1 or HDAC2) and any released acetate was extracted into an organic phase and quantitatively determined using scintillation counting. By including a test compound with the source of HDAC, that compound's ability to inhibit the HDAC was determined.
The HeLa cell extract was made from HeLa cells (ATCC Ref. No. CCL-2) by freeze-thawing three times in 60 mM TrisCl pH 8.0, 450 mM NaCl, 30% glycerol. Two cell volumes of extraction buffer were used, and particulate material was centrifuged out (20800 g, 4° C., 10 min). The supernatant extract having deacetylase activity was aliquotted and frozen for storage.
A source of HDAC (e.g., 2 μL of crude HeLa extract, 5 μL of HDAC1 or HDAC2; in elution buffer, as above) was incubated with 3 μL of radioactively labelled peptide along with appropriate dilutions of candidate compounds (1.5 μL) in a total volume of 150 μL of buffer (20 mM Tris pH 7.4, 10% glycerol). The reaction was carried out at 37° C. for one hour, after which the reaction was stopped by adding 20 μL of 1 M HCl/0.4 M sodium acetate. […] Radioactivity was measured using a Tri-Carb 2100TR Liquid Scintillation Analyzer (Packard).
Percent activity (% activity) for each test compound was calculated as: % activity={(S^C−B)/(S^o−B)}×100 wherein S^C denotes signal measured in the presence of enzyme and the compound being tested, S^o denotes signal measured in the presence of enzyme but in the absence of the compound being tested, and B denotes the background signal measured in the absence of both enzyme and compound being tested.

HeLa cells = test: Secondary assay: cell proliferation WST-1, HeLa; format: cell-based; conditions: Homo sapiens, 48 h, read-out: Cell Proliferation Inhibition WST-1 (IC50 unless otherwise specified) HeLa
Procedure: (§1) Compounds with HDAC inhibition activity, as determined using the primary assay, were subsequently evaluated using secondary cell-based assays. The following cell lines were used:
HeLa—Human cervical adenocarcinoma cell line (ATCC ref. No. CCL-2).
(§2) Cells were plated in 96-well plates at 3-10×10^3 cells/well in 100 μL of culture medium. The following day, different concentrations of candidate compounds were added and the cells incubated at 37° C. for 48 h. Subsequently, 10 μL/well of WST-1 reagent was added and the cells reincubated for 1 hour. After the incubation time, absorbance was measured.
(§3) WST-1 is a tetrazolium salt which is cleaved to formazan dye by cellular enzymes. An expansion in the number of viable cells results in an increase in the overall activity of mitochondrial dehydrogenases in the sample. This augmentation in the enzyme activity leads to an increase in the amount of formazan dye formed, which directly correlates to the number of metabolically active cells in the culture. The formazan dye produced is quantified by a scanning multiwell spectrophotometer by measuring the absorbance of the dye solution at 450 nm wavelength (reference wavelength 690 nm).
(§4) Percent activity (% activity) in reducing the number of viable cells was calculated for each test compound as: % activity={(S^C−B)/(S^o−B)}×100 wherein S^C denotes signal measured in the presence of the compound being tested, S^o denotes signal measured in the absence of the compound being tested, and B denotes the background signal measured in blank wells containing medium only.
(§5) IC50 values were calculated using the software package Prism 3.0 (GraphPad software Inc., San Diego, Calif.), setting top value at 100 and bottom value at 0.

JURKAT human T-cell line = test: Secondary assay: cell proliferation WST-1, Jurkat; format: cell-based; conditions: Homo sapiens, 48 h, read-out: Cell Proliferation Inhibition WST-1 (IC50 unless otherwise specified) Jurkat
Procedure: as §1
JURKAT—Human T-cell line (ATCC no. TIB-152).
as §2, §3, §4, §5

[1] = system: K11 HPV E7 transformed human keratinocyte line; test: Secondary assay: cell proliferation WST-1, K11; format: cell-based; conditions: Homo sapiens, Keratinocyte, 48 h, read-out: Cell Proliferation Inhibition WST-1 (IC50 unless otherwise specified) K11
Procedure: as §1
K11—HPV E7 transformed human keratinocyte line provided by Pidder Jansen-Duerr, Institut für Biomedizinische Alternsforschung, Innsbruck, Austria.
as §2, §3, §4, §5

[2] = read-out: HDAC Inhibition (IC50 unless otherwise specified) HeLa
[3] = comparative tables, read-out: HeLa IC50

| Structure (SMILES) | melting point [°C] | IC50 (HDAC (HeLa cell extract); [2]) [nM] | IC50 (HDAC (HeLa cell extract); [3]) [nM] | IC50 (HeLa cells) [nM] | IC50 (HDAC (HeLa cell extract); comparative tables, no unit in cell, read-out: HeLa IC50) [nM] | IC50 (JURKAT human T-cell line) [nM] | IC50 [1] [nM] | HDAC Inhibition HeLa, percent (HDAC (HeLa cell extract); @ 500 nM) [% @ 500 nM] | percent HDAC inhibition at the stated concentration (HDAC (HeLa cell extract); comparative tables, @ 500 nM) [% @ 500 nM] |
| --- | --- | --- | --- | --- | --- | --- | --- | --- | --- |
| CN(C)c1ccc(C(=O)NCCCCC(=O)NO)c2ccccc12 [PX082534, 4-Dimethylamino-napthalene-1-carboxylic acid (4-hydroxycarbamoyl-butyl)-amide] | 129 | 1500 | 1500 | 24000 | – | – | – | – | – |
| O=C(CCCCCNC(=O)c1ccc2ccccc2c1)NO [PX105687, Naphthalene-2-carboxylic acid (5-hydroxycarbamoylpentyl)amide] | – | – | – | – | – | 400 | 2600 | – | – |
| O=C(CCCCCNC(=O)c1ccco1)NO [PX105826, Furan-2-carboxylic acid (5-hydroxycarbamoyl-pentyl)-amide] | 113.5 to 115 | 396 | 400 | 18000 | – | – | – | – | – |
| O=C(/C=C/C=C/c1ccccc1[N+](=O)[O-])NCCCCCC(=O)NO [PX105830, (2E,4E)-5-(2-Nitrophenyl)penta-2,4-dienoic acid (5-hydroxycarbamoyl-pentyl)amide] | 131 to 133 | 82 | – | 14000 | – | – | – | – | – |
| O=C(/C=C/C=C/c1ccc([N+](=O)[O-])cc1)NCCCCCC(=O)NO [PX105847, (2E,4E)-5-(4-Nitrophenyl)penta-2,4-dienoic acid (5-hydroxycarbamoyl-pentyl)-amide] | 111 to 113 | 75 | – | 8300 | – | – | – | – | – |
| O=C(/C=C/c1ccco1)NCCCCCC(=O)NO [PX106491, 3-Furan-2-yl-N-(5-hydroxycarbamoyl-pentyl)-acrylamide] | 151 to 152.5 | 83 | 83 | 520 | – | – | – | – | – |
| CC(C)(C)c1ccc(C(=O)NCCCCCC(=O)NO)cc1 [PX106496, 4-tert-Butyl-N-(5-hydroxycarbamoylpentyl)benzamide] | 150 to 151.5 | 82 | – | 5800 | – | – | – | – | – |
| CN(C)c1ccc(/C=C/C=C/C(=O)NCCCCCC(=O)NO)cc1 [PX106527, (2E,4E)-5-(4-Dimethylamino-phenyl)-penta-2,4-dienoic acid (5-hydroxycarbamoyl-pentyl)-amide] | 172 to 174 | 24 | 24 | 1000 | – | – | – | – | – |
| O=C(/C=C/c1cccs1)NCCCCCC(=O)NO [PX117247, N-(5-Hydroxycarbamoyl-pentyl)-3-thiophen-2-yl-acrylamide] | 151 to 153 | 19 | – | 570 | – | – | – | – | – |
| CC(C)c1ccc(C(=O)NCCCCCC(=O)NO)cc1 [PX117421, N-[6-(Hydroxyamino)-6-oxohexyl]-4-isopropylbenzamide] | 127.5 to 128 | 85 | – | 3100 | – | – | – | – | – |
| C/C(=C\C#Cc1ccccc1)C(=O)NCCCCCC(=O)NO [PX117451, E-2-Methyl-5-phenylpent-2-en-4-ynoic acid (5-hydroxycarbamoyl-pentyl)amide] | – | 31 | – | 22000 | – | – | 12000 | – | – |
| CN(C)c1ccc(CC(=O)NCCCCCC(=O)NO)cc1 [PX117458, 6-[2-(4-Dimethylamino-phenyl)-acetylamino]-hexanoic acid hydroxyamide] | 124 to 126 | – | – | – | – | – | – | 9 | 9 |

Second part, led by results:

| melting point [°C] | IC50 (HDAC (HeLa cell extract); [2]) [nM] | IC50 (HDAC (HeLa cell extract); [3]) [nM] | IC50 (HeLa cells) [nM] | IC50 (HDAC (HeLa cell extract); comparative tables, no unit in cell, read-out: HeLa IC50) [nM] | Structure (SMILES) | IC50 (JURKAT human T-cell line) [nM] | IC50 [1] [nM] | HDAC Inhibition HeLa, percent (HDAC (HeLa cell extract); @ 500 nM) [% @ 500 nM] | percent HDAC inhibition at the stated concentration (HDAC (HeLa cell extract); comparative tables, @ 500 nM) [% @ 500 nM] |
| --- | --- | --- | --- | --- | --- | --- | --- | --- | --- |
| 118 to 119 | 333 | 333 | 17000 | – | O=C(CCCCCNC(=O)c1cccc2ccccc12)NO [PX105828, Naphthalene-1-carboxylic acid (5-hydroxycarbamoyl-pentyl)-amide] | – | – | – | – |
| 147 to 149 | 62 | – | 650 | 62 | O=C(/C=C/C=C/c1ccccc1)NCCCCCCC(=O)NO [PX106518] | – | – | – | – |
| 158 to 160 | 63 | – | 8400 | – | C/C(=C\C=C\c1ccccc1)C(=O)NCCCCCC(=O)NO [PX106520, (2E,4E)-2-Methyl-5-phenylpenta-2,4-dienoic acid (5-hydroxycarbamoylpentyl)-amide] | – | – | – | – |
| 118.5 to 120 | 100 | – | 6000 | – | O=C(CCCCCCC(=O)NCCc1c[nH]c2ccccc12)NO [PX116216, Octanedioic acid hydroxyamide [2-(1H-indol-3-yl)-ethyl]-amide] | – | – | – | – |
| 123 to 123.5 | – | – | 11000 | – | O=C(CCCCCCC(=O)NCC(c1ccccc1)c1ccccc1)NO [PX117249, Octanedioic acid (2,2-diphenyl-ethyl)-amide hydroxyamide] | – | – | 64 | – |
| 97 to 98 | – | – | 71000 | – | O=C(CCCCCNC(=O)CCCCc1ccccc1)NO [PX117261, 6-(5-Phenyl-pentanoylamino)-hexanoic acid hydroxyamide] | – | – | 51 | – |
| 112 to 114 | – | – | 6900 | – | O=C(CCCCCNC(=O)[C@H](Cc1c[nH]c2ccccc12)NC(=O)Cc1ccc2ccccc2c1)NO [PX117406, N-Hydroxy-6-[((2S)-3-(1H-indol-3-yl)-2-{[2-(2-naphthyl)acetyl]-amino}propanoyl)amino]-hexanamide] | – | – | 48 | – |
| 106 to 108 | – | – | 13000 | – | O=C(CCCCCNC(=O)[C@H](Cc1c[nH]c2ccccc12)NC(=O)CCCc1ccccc1)NO [PX117407, N-hydroxy-6-({(2S)-3-(1H-indol-3-yl)-2-[(4-phenylbutanoyl)amino]-propanoyl}amino)-hexanamide] | – | – | 40 | – |
| 140 to 142 | – | – | 11000 | – | O=C(CCCCCC(=O)NCCc1c[nH]c2ccccc12)NO [PX117408, N^1-Hydroxy-N^7-[2-(1H-indol-3-yl)ethyl]heptanediamide] | – | – | 41 | – |
| 112 to 113 | 62 | – | 11000 | – | O=C(C#Cc1ccccc1)NCCCCCC(=O)NO [PX117415, 3-Phenyl-propynoic acid (5-hydroxycarbamoyl-pentyl)-amide] | – | – | – | – |
| 101 to 103 | 688 | – | 45000 | – | O=C(CCCCCNC(=O)CC/C=C\c1ccccc1)NO [PX117444, (Z)-N-[6-(Hydroxyamino)-6-oxohexyl]-5-phenyl4-pentenamide] | – | – | – | – |
| 141 to 143 | – | – | – | – | O=C(CCCCCCC(=O)NCc1cccc2ccccc12)NO [PX117459, Octanedioic acid hydroxyamide (naphthalen-1-ylmethyl)-amide] | – | – | 63 | – |
| 142 to 144 | 20 | – | > 5000 | – | O=C(CCCCCC(=O)Nc1ccc2ccccc2c1)NO [PX117461, Heptanedioic acid hydroxyamide naphthalen-2-ylamide] | – | – | – | – |
